Reference: patent US4892826A, “Process for the preparation of urokinase derivatives” (Abbott Laboratories, priority 1988, dated 1990)

Experiments:
[1] = Urokinase amidolytic activity assay with chromogenic substrate S-2444; format: biochemical; details: isolated derivative
Experimental: The reduction of the three disulfide bridges can be monitored, for example, by assays of the amidolytic activity of the urokinase, by titration of the available SH groups, or by reverse phase chromatography of the reduced urokinase. Preferably, the reduction is monitored by assaying the gain or loss of amidolytic activity of the urokinase.
Approximately 1 to 2 mg/ml of the UK23 solution, in 0.1M phosphate (pH 7), was diluted with 1 volume of 0.5M arginine in water (pH 7). The reducing agent DTT, from a fresh stock solution of 1M in water, was added to adjust the final DTT concentration to 10 mM. […] The absorbance increase at 406 nm was monitored over a five minute period. One enzyme unit was defined as an increase in absorbance at 406 nm of 1 unit per minute.

urokinase = urokinase (Homo sapiens, UniProt P00749); assay: biochemical
Source text: The optimal concentration of arginine can be approximated by its apparent Ki value for inhibition of urokinase as calculated from a Dixon plot. Dixon, M, Biochem. J., 55, 170-171 (1953). […] It is preferred that the concentration of arginine chosen will maximally saturate the urokinase molecule and confer a protective effect against the previously discussed over reduction of the disulfide bridges.

For “Heparin-LKFQCGQK Urokinase Derivative [Example 4]”, the “active (amidolytic activity of resulting derivative)” value [1] was 100%.
Molecule `N=C(N)NCCC[C@H](N)C(=O)O` [arginine] has a Ki (urokinase) of 70 mM.
For “GPRP-Amino hexanoic acid-LKFQCGQK Urokinase Derivative [Example 1]”, the “amidolytic activity, % of the initial UK23 value” ([1]; repeated procedures) was 80% to 100.
